Results: US9481648B2, “Kinase inhibitors” (Respivert Limited, priority 2013, dated 2016)

What was measured:
[1] = target: Syk (Homo sapiens (Human), UniProt P43405); test: Syk enzyme inhibition (FRET, Z-LYTE); format: biochemical
In short: (§1)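 Syk or c-Src enzyme (3000 or 2000 ng/mL solutions) was preincubated 2 h at RT with compound solutions at 1, 0.1, 0.01 or 0.001 µg/mL. Z-LYTE FRET peptide (8 µM solution) and ATP (800 µM solution for c-Src, 60 µM for Syk) were then added for 1 h, followed by protease development for 1 h. Phosphorylation was read as the coumarin/fluorescein emission ratio.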

[2] = system: β-catenin in d-U937 cells; test: Accumulation of β catenin in d-U937 cells (assay m); format: cell-based, human
In short: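 U937 cells were differentiated with PMA (100 ng/mL) for 48–72 hr, then treated with compound or vehicle for 18 hr. After formaldehyde fixation, β-catenin was detected with a primary antibody and an HRP secondary using TMB (OD450–655). Signal was normalised to crystal violet cell staining (OD595).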

[3] = target: GSK 3α (Homo sapiens (Human), UniProt P49840); test: GSK 3α enzyme inhibition (FRET, Z-LYTE; Method 2); format: biochemical; conditions: read-out: IC50 Values for Enzyme Inhibition GSK3α
Sequence of GSK 3α (P49840 whole entry): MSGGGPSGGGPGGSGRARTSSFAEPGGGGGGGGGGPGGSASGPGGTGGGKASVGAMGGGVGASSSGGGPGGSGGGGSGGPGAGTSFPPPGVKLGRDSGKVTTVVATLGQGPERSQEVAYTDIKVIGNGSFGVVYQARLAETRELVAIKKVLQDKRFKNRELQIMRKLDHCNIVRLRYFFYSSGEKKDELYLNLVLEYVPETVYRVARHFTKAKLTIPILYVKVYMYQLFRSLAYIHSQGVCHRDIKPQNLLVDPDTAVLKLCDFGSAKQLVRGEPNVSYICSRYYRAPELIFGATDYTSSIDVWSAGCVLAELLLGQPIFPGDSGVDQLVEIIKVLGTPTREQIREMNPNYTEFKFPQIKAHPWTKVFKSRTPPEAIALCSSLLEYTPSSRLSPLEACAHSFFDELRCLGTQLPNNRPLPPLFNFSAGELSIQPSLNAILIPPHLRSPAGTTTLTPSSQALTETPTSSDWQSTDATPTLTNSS
In short: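 Phosphorylation was taken from the donor (coumarin) to acceptor (fluorescein) emission ratio after 1 h protease development, which cleaves only unphosphorylated peptide. Before that, peptide (8 μM stock) plus ATP (40 μM stock) reacted 1 h. This followed a 105 min RT preincubation of GSK3-α with compound stocks of 10–0.01 μg/mL.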

[4] = target: c-Src (Homo sapiens (Human), UniProt P12931); test: c-Src enzyme inhibition (FRET, Z-LYTE); format: biochemical
Sequence of c-Src (P12931 whole entry, looked up): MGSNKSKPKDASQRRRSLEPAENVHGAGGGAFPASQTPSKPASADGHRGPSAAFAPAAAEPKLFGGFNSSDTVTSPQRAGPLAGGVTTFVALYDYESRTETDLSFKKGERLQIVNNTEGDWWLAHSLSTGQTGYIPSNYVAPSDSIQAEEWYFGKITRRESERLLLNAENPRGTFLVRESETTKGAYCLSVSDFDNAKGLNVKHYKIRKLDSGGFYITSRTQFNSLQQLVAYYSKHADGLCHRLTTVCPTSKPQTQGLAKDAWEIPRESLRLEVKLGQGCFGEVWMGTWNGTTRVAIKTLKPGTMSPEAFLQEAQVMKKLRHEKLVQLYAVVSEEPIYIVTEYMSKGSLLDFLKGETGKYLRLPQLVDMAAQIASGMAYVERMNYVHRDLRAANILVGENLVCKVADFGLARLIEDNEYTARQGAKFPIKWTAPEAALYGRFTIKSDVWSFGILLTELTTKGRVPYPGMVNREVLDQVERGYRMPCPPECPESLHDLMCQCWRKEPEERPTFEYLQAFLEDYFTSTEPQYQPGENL
In short: as §1

[5] = target: p38 MAPKα (MAPK14) (Homo sapiens (Human), UniProt Q16539); test: p38 MAPKα enzyme inhibition (FRET, Z-LYTE; Method 2); format: biochemical
Sequence of p38 MAPKα (MAPK14) (Q16539 whole entry): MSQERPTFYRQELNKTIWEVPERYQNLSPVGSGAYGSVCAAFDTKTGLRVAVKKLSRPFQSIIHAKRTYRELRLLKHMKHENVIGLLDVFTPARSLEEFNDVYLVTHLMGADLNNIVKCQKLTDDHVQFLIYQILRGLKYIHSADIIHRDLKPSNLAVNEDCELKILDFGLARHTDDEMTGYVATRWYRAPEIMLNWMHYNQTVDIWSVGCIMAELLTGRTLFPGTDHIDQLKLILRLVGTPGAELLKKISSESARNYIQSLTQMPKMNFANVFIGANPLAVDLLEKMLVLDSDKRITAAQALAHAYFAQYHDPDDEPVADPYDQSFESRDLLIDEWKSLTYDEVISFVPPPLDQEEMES

Compound	IC50 [1] [nM]	% β-catenin induction ([2]; test compound 1 μg/mL) [%]	% β-catenin induction ([2]; test compound 5 μg/mL) [%]	% β-catenin induction ([2]; test compound 10 μg/mL) [%]	IC50 [3] [nM]	IC50 [4] [nM]	IC50 [5] [nM]
C#Cc1cc(Nc2cc(Oc3ccc(NC(=O)Nc4cc(C(C)(C)C)cc(C(=O)NC)c4OC)c4ccccc34)ccn2)cc(C(=O)NCCN2CCOCC2)c1 [Example 39, 5-(tert-Butyl)-3-(3-(4-((2-((3-ethynyl-5-((2-morpholinoethyl)carbamoyl)phenyl)amino)-pyridin-4-yl)oxy)naphthalen-1-yl)ureido)-2-methoxy-N-methylbenzamide]	571	−11	−12	−18	1600	29	140
COCCOCCOCCOCCOCCOCCOCCOc1cc(Nc2cc(Oc3ccc(NC(=O)Nc4cc(C(C)(C)C)cc(NS(C)(=O)=O)c4OC)c4ccccc34)ccn2)cc(OC)c1 [Example 45, N-(3-(3-(4-((2-((3-(2,5,8,11,14,17,20-Heptaoxadocosan-22-yloxy)-5-methoxyphenyl)-amino)pyridin-4-yl)oxy)naphthalen-1-yl)ureido)-5-(tert-butyl)-2-methoxyphenyl)methanesulfonamide]	455	−4	−7	−14	2160	39	145
COCCOCCOCCOc1cc(Nc2nccc(Oc3ccc(NC(=O)Nc4cc(C(C)(C)C)cc(C(=O)NCCN(C)C)c4OC)c4ccccc34)n2)cc(OC)c1 [Example 46, 5-(tert-Butyl)-N-(2-(dimethylamino)ethyl)-2-methoxy-3-(3-(4-((2-((3-methoxy-5-(2-(2-(2-methoxyethoxy)ethoxy)ethoxyl)phenyl)amino)pyrimidin-4-yl)oxy)naphthalen-1-yl)ureido)-benzamide]	20	−2	2	−29	636	15	110
COc1cc(Nc2cc(Oc3ccc(NC(=O)Nc4cc(C(C)(C)C)cc(C(N)=O)c4OC)c4ccccc34)ccn2)cc(C(=O)NCCN2CCOCC2)c1 [Example 47, 3-((4-((4-(3-(5-(tert-Butyl)-3-carbamoyl-2-methoxyphenyl)ureido)naphthalen-1-yl)oxy)pyridin-2-yl)amino)-5-methoxy-N-(2-morpholinoethyl)benzamide]	169	−5	4	8	1600	15	92
C#Cc1cc(Nc2cc(Oc3ccc(NC(=O)Nc4cc(C(C)(C)C)cc(C(N)=O)c4OC)c4ccccc34)ccn2)cc(C(=O)NCCN2CCOCC2)c1 [Example 48, 3-((4-((4-(3-(5-(tert-Butyl)-3-carbamoyl-2-methoxyphenyl)ureido)naphthalen-1-yl)oxy)pyridin-2-yl)amino)-5-ethynyl-N-(2-morpholinoethyl)benzamide]	490	−2	−4	−3	5030	45	229
C#Cc1cc(Nc2cc(Oc3ccc(NC(=O)Nc4cc(C(C)(C)C)cc(NS(C)(=O)=O)c4OC)c4ccccc34)ccn2)cc(C(=O)NCCN2CCOCC2)c1 [Example 49, 3-((4-((4-(3-(5-(tert-Butyl)-2-methoxy-3-methylsulfonamido)phenyl)ureido)naphthalen-1-yl)oxy)pyridin-2-yl)amino-5-ethynyl-N-(2-morpholinoethyl)benzamide]	1220	−1	−2	−5	8360	56	258
COCCOCCOCCOc1cc(Nc2nccc(Oc3ccc(NC(=O)Nc4cc(C(C)(C)C)cc(C(=O)NC5COC5)c4OC)c4ccccc34)n2)cc(OC)c1 [Example 51, 5-(tert-Butyl)-2-methoxy-3-(3-(4-((2-((3-methoxy-5-(2-(2-(2-methoxyethoxy)ethoxy)-ethoxy)phenyl)amino)pyrimidin-4-yl)oxy)naphthalen-1-yl)ureido)-N-(oxetan-3-yl)-benzamide]	49	3	33	29	977	15	170
C#Cc1cc(Nc2cc(Oc3ccc(NC(=O)Nc4cc(C(C)(C)C)cc(NS(C)(=O)=O)c4OC)c4ccccc34)ccn2)cc(C(=O)NCCOCCOC)c1 [Example 52]	1260	2	9	1	12600	100	277
C#Cc1cc(Nc2cc(Oc3ccc(NC(=O)Nc4cc(C(C)(C)C)cc(C(N)=O)c4OC)c4ccccc34)ccn2)cc(C(=O)NCCOCCOCCOC)c1 [Example 53, 3-((4-((4-(3-(5-(tert-Butyl)-3-carbamoyl-2-methoxyphenyl)ureido)naphthalen-1-yl)oxy)pyridin-2-yl)amino)-5-ethynyl-N-(2-(2-(2-methoxyethoxy)ethoxy)ethyl)benzamide]	1270	−1	1	2	8780	46	132
C#Cc1cc(Nc2cc(Oc3ccc(NC(=O)Nc4cc(C(C)(C)C)cc(NS(C)(=O)=O)c4OC)c4ccccc34)ccn2)cc(C(=O)NCCOCCOCCOC)c1 [Example 54]	1190	5	5	−2	11900	42	140
COCCOCCOCCOc1cc(Nc2nccc(Oc3ccc(NC(=O)Nc4cc(C(C)(C)C)cc(S(N)(=O)=O)c4OC)c4ccccc34)n2)cc(OC)c1 [Example 55, 5-(tert-Butyl)-2-methoxy-3-(3-(4-((2-((3-methoxy-5-(2-(2-(2-methoxyethoxy)ethoxy)-ethoxy)phenyl)amino)pyrimidin-4-yl)oxy)naphthalen-1-yl)ureido)benzenesulfonamide]	131	11	23	45	2360	22	157
C#Cc1cc(Nc2nccc(Oc3ccc(NC(=O)Nc4cc(C(C)(C)C)cc(NS(C)(=O)=O)c4OC)c4ccccc34)n2)cc(C(=O)N[C@H](C)CN2CCOCC2)c1 [Example 56, (R)-3-((4-((4-(3-(5-(tert-Butyl)-2-methoxy-3-(methysulfonamido)phenyl)ureido)-naphthalen-1-yl)oxy)pyrimidin-2-yl)amino)-5-ethynyl-N-(1-morpholinopropan-2-yl)-benzamide]	631	3	13	14	763	45	335
